Results published in US6471973B2 (Coletica, priority 1998, dated 2002).

How the values were obtained:
[1] = target: T1, human leukocytic elastase (Homo sapiens, UniProt P08246); experiment: Determination of the anti-elastase activity (elastin-rhodamine, fluorescence); format: biochemical; conditions: solubilized in ethoxydiglycol, 20 min at 37° C.
T1 sequence (P08246 30-267): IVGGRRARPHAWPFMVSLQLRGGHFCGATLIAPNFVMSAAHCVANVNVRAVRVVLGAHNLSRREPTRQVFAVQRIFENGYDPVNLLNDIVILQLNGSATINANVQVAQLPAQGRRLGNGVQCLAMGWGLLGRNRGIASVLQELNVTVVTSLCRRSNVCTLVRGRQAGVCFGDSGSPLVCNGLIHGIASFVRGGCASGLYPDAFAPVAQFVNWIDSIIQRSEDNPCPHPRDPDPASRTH
Procedure: The enzymatic substrate elastin-rhodamine is dissolved in TrisHCl buffer (31.52 g of TrisHCl, water qsp 1000 ml) of pH 8.8 at a rate of 15 mg/ml. 1 mg of human leukocytic elastase is dissolved in 20 ml of TrisHCl buffer. The products of the invention are evaluated for their capacity to inhibit the degradation of elastin, which can be followed by fluorescence (excitation at 530 nm; emission at 590 nm) after the incubation, for 20 min at 37° C., of a mixture comprising the substrate, the enzyme and the inhibitor to be tested. The results are given as % inhibition relative to the inhibitor-free control.

[2] = in vivo
Procedure: This preparation is used for the following toxicity studies:
The tests were performed by the official method in accordance with the decree of Feb.

[3] = Determination of the free radical inhibiting activity in vitro; conditions: 30 minutes; for Free radical inhibiting activity: compound at 25 mM, dissolved in DMSO, DMSO control subtracted; for % free radical inhibiting activity: dissolved in ethoxydiglycol, control subtracted
Procedure: A 60 μM solution of 1,1-diphenyl-2-picrylhydrazyl in ethanol is placed in contact, for 30 minutes at room temperature, with a sample originating from the products of the invention whose free radical inhibiting power is to be determined. […] The higher the percentage decrease, the stronger will be the free radical inhibiting activity of the active ingredient tested.

[4] = Oxidation stability test on flavonoids in simple preparations (color of solutions); format: physicochemical; conditions: 0.103 M in ethoxydiglycol, Pantone color
Procedure: A solution of […] containing 31.1 g/l (i.e. 0.103 M) is prepared in ethoxy-diglycol. The pH is adjusted to 5 or 6 and then 10 g/l of a preservative based on parabens are added to the mixture in order to avoid bacterial pollution. […] At identical molar concentrations, the two products are therefore compared for their oxidation stability, the color parameters being used as the stability indicators. The color references given in the Examples which follow refer to the Pantone colors as used in all the paint color charts well known to those skilled in the art.

[5] = Oxidation stability test on flavonoids in complex preparations (emulsions); format: physicochemical; conditions: 45° C.
Procedure: Oxidation stability test on flavonoids in complex preparations (emulsions) Composition of the formulation: [table] After studying the stabilities over about 1 month, it can be said that the color of the formulations containing flavonoids used in the form which has not been rendered lipophilic undergoes an extremely unfavorable change at 45° C.

[6] = test concentration 1.03^−3 mol/l
[7] = test concentration 1.03^−4 mol/l
[8] = test concentration 1.03^−5 mol/l

With “Hesperitin monoacylated by C12 [Example 7]” the “Anti-elastase test: % inhibition relative to the inhibitor-free control” value ([1]; test concentration 0.103 mol/l) was 100%, the “Anti-elastase test: % inhibition relative to the inhibitor-free control” value [1, 6] was 50% and the “Anti-elastase test: % inhibition relative to the inhibitor-free control” value [1, 7] was 36%. The “Anti-elastase test: % inhibition relative to the inhibitor-free control” value [1, 8] was 34%.

In the case of “hesperitin triacylated by C18:2 [Example 15]”, the Skin irritation [2] is reported as “did not cause any irritation phenomena”.

For `CCCC(=O)Oc1cc(OC(=O)CCC)c2c(c1)OC(c1ccc(OC)c(OC(=O)CCC)c1)CC2=O` (stereo not shown) [Example 12, hesperitin triacylated by C4], the Skin irritation [2] was “did not cause any irritation phenomena”.

In the case of “hesperitin diacylated by C12 [Example 6]”, the “Anti-elastase test: % inhibition relative to the inhibitor-free control” value ([1]; test concentration 0.103 mol/l) is reported as 100%, the “Anti-elastase test: % inhibition relative to the inhibitor-free control” value [1, 6] is reported as 65% and the “Anti-elastase test: % inhibition relative to the inhibitor-free control” value [1, 8] is reported as 29%. For the same compound, the “Free radical inhibiting activity” value [3] was 67%.

In the case of `COc1ccc([C@@H]2CC(=O)c3c(O)cc(O)cc3O2)cc1O` [Hesperitin, hesperitin], the “Anti-elastase test: % inhibition relative to the inhibitor-free control” value [1, 6] is reported as 20%, the “Anti-elastase test: % inhibition relative to the inhibitor-free control” value [1, 7] is reported as 24% and the “Anti-elastase test: % inhibition relative to the inhibitor-free control” value [1, 8] is reported as 0%. For the same compound, the “% free radical inhibiting activity” value ([3]; 0.103 mol/l) was 94%, the “% free radical inhibiting activity” value ([3]; 1.03^−3 mol/l) was 28% and the “% free radical inhibiting activity” value ([3]; 1.03^−5 mol/l) was 8%. For the same compound, the “Free radical inhibiting activity” value [3] was 42%, the “Color of the solutions 1 day after manufacture” value (from here on “Color of the solutions 1 day”) ([4]; pH 5, 4° C.) was 157C and the “Color of the solutions 21 days after manufacture” value (“Color of the solutions 21 days” below) ([4]; pH 5, 4° C.) was “black +”. For the same compound, the “Color of the solutions 1 day” value ([4]; pH 5, 20° C.) was 157C, the “Color of the solutions 21 days” value ([4]; pH 5, 20° C.) was “black +” and the “Color of the solutions 1 day” value ([4]; pH 5, 45° C.) was 157C. The “Color of the solutions 21 days” value ([4]; pH 5, 45° C.) was “black +”, the “Color of the solutions 1 day” value ([4]; pH 6, 4° C.) was 157C and the “Color of the solutions 21 days” value ([4]; pH 6, 4° C.) was “black +”. The “Color of the solutions 1 day” value ([4]; pH 6, 20° C.) was 157C, the “Color of the solutions 21 days” value ([4]; pH 6, 20° C.) was “black +” and the “Color of the solutions 1 day” value ([4]; pH 6, 45° C.) was 157C. For the same compound, the “Color of the solutions 21 days” value ([4]; pH 6, 45° C.) was “black +”, the “Stability test: color of cream, T 1 day” value ([5]; 520 μM in cream (emulsion)) was “light beige” and the “Stability test: color of cream, T 7 days” value ([5]; 520 μM in cream (emulsion)) was “yellow”. For the same compound, the “Stability test: color of cream, T 25 days” value ([5]; 520 μM in cream (emulsion)) was “yellow”, the “Stability test: color of cream, T 35 days” value ([5]; 520 μM in cream (emulsion)) was “yellow” and the “Stability test: color of cream, T 1 day” value ([5]; 1043 μM in cream (emulsion)) was “more”. For the same compound, the “Stability test: color of cream, T 7 days” value ([5]; 1043 μM in cream (emulsion)) was “very yellow”, the “Stability test: color of cream, T 25 days” value ([5]; 1043 μM in cream (emulsion)) was “very yellow” and the “Stability test: color of cream, T 35 days” value ([5]; 1043 μM in cream (emulsion)) was “very yellow”.
